Assay results reported in article PMC6009956, “Design, synthesis and biological activity of N^4-phenylsubstituted-7H-pyrrolo[2,3-d]pyrimidin-4-amines as dual inhibitors of aurora kinase A and epidermal growth factor receptor kinase” (Journal of Enzyme Inhibition and Medicinal Chemistry, 2017).
Where two headings read alike, the source gives them in different places.

Columns and labels:
aurora A kinase (AURKA) = molecular target: T1, aurora A kinase (AURKA) (Homo sapiens, UniProt O14965); test: ADP-Glo kinase assay, Aurora A; format: biochemical
T1 construct: purchased BPS Bioscience (assay run externally by the vendor)
T1 sequence (O14965 1-403): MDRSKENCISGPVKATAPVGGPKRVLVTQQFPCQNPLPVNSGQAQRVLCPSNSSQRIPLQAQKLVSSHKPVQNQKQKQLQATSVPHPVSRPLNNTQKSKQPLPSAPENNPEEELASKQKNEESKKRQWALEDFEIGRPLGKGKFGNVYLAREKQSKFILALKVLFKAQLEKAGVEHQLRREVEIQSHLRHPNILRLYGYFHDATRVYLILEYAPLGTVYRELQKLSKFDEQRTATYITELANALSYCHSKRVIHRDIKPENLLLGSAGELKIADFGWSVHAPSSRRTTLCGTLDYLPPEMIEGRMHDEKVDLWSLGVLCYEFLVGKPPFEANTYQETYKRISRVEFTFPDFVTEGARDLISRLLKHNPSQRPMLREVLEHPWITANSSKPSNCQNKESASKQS

EGFR = EGFR (Homo sapiens, UniProt P00533); test: ADP-Glo kinase assay, EGFR; format: biochemical; set-up: purchased BPS Bioscience (assay run externally by the vendor)
Chain of EGFR (P00533 25-1210): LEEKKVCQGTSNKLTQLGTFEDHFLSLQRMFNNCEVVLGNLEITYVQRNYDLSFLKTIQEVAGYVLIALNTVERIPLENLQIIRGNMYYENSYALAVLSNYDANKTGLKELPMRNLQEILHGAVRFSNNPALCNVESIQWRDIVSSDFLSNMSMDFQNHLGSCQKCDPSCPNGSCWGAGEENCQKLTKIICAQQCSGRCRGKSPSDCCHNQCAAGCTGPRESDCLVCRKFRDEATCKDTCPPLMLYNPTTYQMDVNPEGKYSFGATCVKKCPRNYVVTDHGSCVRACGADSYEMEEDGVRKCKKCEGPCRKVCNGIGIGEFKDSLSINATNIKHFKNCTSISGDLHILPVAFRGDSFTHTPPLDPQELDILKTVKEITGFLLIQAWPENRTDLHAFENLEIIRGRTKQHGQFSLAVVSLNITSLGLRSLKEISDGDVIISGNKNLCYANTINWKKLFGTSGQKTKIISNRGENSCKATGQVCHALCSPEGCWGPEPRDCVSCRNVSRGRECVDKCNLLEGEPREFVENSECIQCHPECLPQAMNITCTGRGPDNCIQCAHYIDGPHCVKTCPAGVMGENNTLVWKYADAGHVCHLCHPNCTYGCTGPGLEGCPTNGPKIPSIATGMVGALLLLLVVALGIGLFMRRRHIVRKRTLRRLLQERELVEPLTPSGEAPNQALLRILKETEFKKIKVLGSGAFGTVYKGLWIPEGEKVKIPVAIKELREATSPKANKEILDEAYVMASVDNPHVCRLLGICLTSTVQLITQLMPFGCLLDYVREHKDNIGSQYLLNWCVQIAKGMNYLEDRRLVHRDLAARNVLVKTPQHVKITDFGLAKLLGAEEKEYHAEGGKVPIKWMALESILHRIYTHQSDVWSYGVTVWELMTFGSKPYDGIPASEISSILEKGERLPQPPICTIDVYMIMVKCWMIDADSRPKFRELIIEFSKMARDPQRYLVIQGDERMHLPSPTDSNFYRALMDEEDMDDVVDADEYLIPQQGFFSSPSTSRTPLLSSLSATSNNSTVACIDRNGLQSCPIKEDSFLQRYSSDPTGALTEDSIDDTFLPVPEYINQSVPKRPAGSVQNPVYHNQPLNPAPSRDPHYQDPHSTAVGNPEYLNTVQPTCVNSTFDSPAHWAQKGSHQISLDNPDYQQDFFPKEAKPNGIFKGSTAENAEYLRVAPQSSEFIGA

Which results are given for Cc1cccc(Nc2ncnc3[nH]ccc23)c1 [Compound 12, N^4-(3-methylaniline)-7H-pyrrolo[2,3-d]pyrimidin-4-amine]?
IC50 (aurora A kinase (AURKA); 10 µM ATP, triplicate, read-out: AURKA IC50 ± SD): 3.43 ± 0.12 µM; IC50 (aurora A kinase (AURKA); 10 µM ATP/0.2 mg/ml Kemptide, read-out: Aurora A IC50 (dose-response curve, supplement)): 3.4 µM; Aurora A % Activity Set1 (aurora A kinase (AURKA); Log[nM] 0): 101%; Aurora A % Activity Set2 (aurora A kinase (AURKA); Log[nM] 0): 105%; Aurora A % Activity Set3 (aurora A kinase (AURKA); Log[nM] 0): 95%; Aurora A % Activity Set1 (aurora A kinase (AURKA); Log[nM] 1.0): 100%; Aurora A % Activity Set2 (aurora A kinase (AURKA); Log[nM] 1.0): 102%; Aurora A % Activity Set3 (aurora A kinase (AURKA); Log[nM] 1.0): 97%; Aurora A % Activity Set1 (aurora A kinase (AURKA); Log[nM] 1.5): 97%; Aurora A % Activity Set2 (aurora A kinase (AURKA); Log[nM] 1.5): 100%; Aurora A % Activity Set3 (aurora A kinase (AURKA); Log[nM] 1.5): 97%; Aurora A % Activity Set1 (aurora A kinase (AURKA); Log[nM] 2.0): 96%; Aurora A % Activity Set2 (aurora A kinase (AURKA); Log[nM] 2.0): 101%; Aurora A % Activity Set3 (aurora A kinase (AURKA); Log[nM] 2.0): 105%; Aurora A % Activity Set1 (aurora A kinase (AURKA); Log[nM] 2.5): 89%; Aurora A % Activity Set2 (aurora A kinase (AURKA); Log[nM] 2.5): 95%; Aurora A % Activity Set3 (aurora A kinase (AURKA); Log[nM] 2.5): 95%; Aurora A % Activity Set1 (aurora A kinase (AURKA); Log[nM] 3.0): 89%; Aurora A % Activity Set2 (aurora A kinase (AURKA); Log[nM] 3.0): 91%; Aurora A % Activity Set3 (aurora A kinase (AURKA); Log[nM] 3.0): 92%; Aurora A % Activity Set1 (aurora A kinase (AURKA); Log[nM] 3.5): 48%; Aurora A % Activity Set2 (aurora A kinase (AURKA); Log[nM] 3.5): 50%; Aurora A % Activity Set3 (aurora A kinase (AURKA); Log[nM] 3.5): 53%; Aurora A % Activity Set1 (aurora A kinase (AURKA); Log[nM] 4.0): 17%; Aurora A % Activity Set2 (aurora A kinase (AURKA); Log[nM] 4.0): 17%; Aurora A % Activity Set3 (aurora A kinase (AURKA); Log[nM] 4.0): 17%; Aurora A % Activity Set1 (aurora A kinase (AURKA); Log[nM] 4.5): 7%; Aurora A % Activity Set2 (aurora A kinase (AURKA); Log[nM] 4.5): 8%; Aurora A % Activity Set3 (aurora A kinase (AURKA); Log[nM] 4.5): 8%; Aurora A % Activity Set1 (aurora A kinase (AURKA); Log[nM] 5.0): 4%; Aurora A % Activity Set2 (aurora A kinase (AURKA); Log[nM] 5.0): 4%; Aurora A % Activity Set3 (aurora A kinase (AURKA); Log[nM] 5.0): 3%; IC50 (EGFR; 10 µM ATP, triplicate, read-out: EGFR IC50 ± SD): 0.02 ± 0.0036 µM; IC50 (EGFR; 10 µM ATP/0.2 mg/ml Poly-Glu-Tyr, read-out: EGFR IC50 (dose-response curve, supplement)): 0.0199 µM; EGFR % Activity Set1 (EGFR; Log[nM] 0): 77%; EGFR % Activity Set2 (EGFR; Log[nM] 0): 88%; EGFR % Activity Set3 (EGFR; Log[nM] 0): 76%; EGFR % Activity Set1 (EGFR; Log[nM] 1.0): 69%; EGFR % Activity Set2 (EGFR; Log[nM] 1.0): 75%; EGFR % Activity Set3 (EGFR; Log[nM] 1.0): 66%; EGFR % Activity Set1 (EGFR; Log[nM] 1.5): 34%; EGFR % Activity Set2 (EGFR; Log[nM] 1.5): 39%; EGFR % Activity Set3 (EGFR; Log[nM] 1.5): 33%; EGFR % Activity Set1 (EGFR; Log[nM] 2.0): 19%; EGFR % Activity Set2 (EGFR; Log[nM] 2.0): 19%; EGFR % Activity Set3 (EGFR; Log[nM] 2.0): 16%; EGFR % Activity Set1 (EGFR; Log[nM] 2.5): 10%; EGFR % Activity Set2 (EGFR; Log[nM] 2.5): 9%; EGFR % Activity Set3 (EGFR; Log[nM] 2.5): 8%; EGFR % Activity Set1 (EGFR; Log[nM] 3.0): 5%; EGFR % Activity Set2 (EGFR; Log[nM] 3.0): 5%; EGFR % Activity Set3 (EGFR; Log[nM] 3.0): 5%; EGFR % Activity Set1 (EGFR; Log[nM] 3.5): 2%; EGFR % Activity Set2 (EGFR; Log[nM] 3.5): 9%; EGFR % Activity Set3 (EGFR; Log[nM] 3.5): 2%; EGFR % Activity Set1 (EGFR; Log[nM] 4.0): 1%; EGFR % Activity Set2 (EGFR; Log[nM] 4.0): 1%; EGFR % Activity Set3 (EGFR; Log[nM] 4.0): 1%; EGFR % Activity Set1 (EGFR; Log[nM] 4.5): 0%; EGFR % Activity Set2 (EGFR; Log[nM] 4.5): 0%; EGFR % Activity Set3 (EGFR; Log[nM] 4.5): 0%; EGFR % Activity Set1 (EGFR; Log[nM] 5.0): 0%; EGFR % Activity Set2 (EGFR; Log[nM] 5.0): 0%; EGFR % Activity Set3 (EGFR; Log[nM] 5.0): 0%
